Measured values: ChEMBL document CHEMBL1152261, “2-Aminobenzimidazoles as potent ITK antagonists: trans-stilbene-like moieties targeting the kinase specificity pocket” (Bioorg Med Chem Lett, 2008)

Columns and labels:
Insulin receptor = Insulin receptor (Homo sapiens, UniProt P06213); assay: Inhibition of IRK by DELPHIA
T-cell = assay: Inhibition of anti-CD3/anti-CD28-stimulated IL2 production in human CD4+ T cells
[1] = target: T1, Tyrosine-protein kinase ITK/TSK (Homo sapiens, UniProt Q08881); assay: Inhibition of ITK by DELPHIA
T1 sequence (Q08881 whole entry): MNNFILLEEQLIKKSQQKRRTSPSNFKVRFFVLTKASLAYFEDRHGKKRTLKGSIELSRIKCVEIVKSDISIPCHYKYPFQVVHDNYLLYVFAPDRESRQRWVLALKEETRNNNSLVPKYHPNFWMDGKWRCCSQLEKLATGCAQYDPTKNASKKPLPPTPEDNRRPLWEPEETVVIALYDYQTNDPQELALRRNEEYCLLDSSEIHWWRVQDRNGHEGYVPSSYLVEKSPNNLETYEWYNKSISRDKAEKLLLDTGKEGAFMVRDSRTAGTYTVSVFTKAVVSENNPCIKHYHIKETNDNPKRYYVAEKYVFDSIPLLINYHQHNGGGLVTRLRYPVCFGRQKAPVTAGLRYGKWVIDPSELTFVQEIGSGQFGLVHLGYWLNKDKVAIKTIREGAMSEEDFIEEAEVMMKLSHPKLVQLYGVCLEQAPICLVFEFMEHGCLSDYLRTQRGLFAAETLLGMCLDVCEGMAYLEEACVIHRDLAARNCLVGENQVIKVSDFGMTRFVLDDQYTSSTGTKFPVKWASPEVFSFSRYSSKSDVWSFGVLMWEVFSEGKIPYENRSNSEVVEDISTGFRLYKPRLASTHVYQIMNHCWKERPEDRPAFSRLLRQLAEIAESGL

[2] = target: T1, Tyrosine-protein kinase ITK/TSK; assay: Antagonist activity at ITK expressed in chicken DT40 B cells assessed as inhibition of calcium flux; type: functional, cell-based
[3] = target: Tyrosine-protein kinase BTK (Homo sapiens, UniProt Q06187); assay: Inhibition of BTK
[4] = target: T2, Tyrosine-protein kinase TXK (Homo sapiens, UniProt P42681); assay: Inhibition of TXK
T2 sequence (P42681 whole entry): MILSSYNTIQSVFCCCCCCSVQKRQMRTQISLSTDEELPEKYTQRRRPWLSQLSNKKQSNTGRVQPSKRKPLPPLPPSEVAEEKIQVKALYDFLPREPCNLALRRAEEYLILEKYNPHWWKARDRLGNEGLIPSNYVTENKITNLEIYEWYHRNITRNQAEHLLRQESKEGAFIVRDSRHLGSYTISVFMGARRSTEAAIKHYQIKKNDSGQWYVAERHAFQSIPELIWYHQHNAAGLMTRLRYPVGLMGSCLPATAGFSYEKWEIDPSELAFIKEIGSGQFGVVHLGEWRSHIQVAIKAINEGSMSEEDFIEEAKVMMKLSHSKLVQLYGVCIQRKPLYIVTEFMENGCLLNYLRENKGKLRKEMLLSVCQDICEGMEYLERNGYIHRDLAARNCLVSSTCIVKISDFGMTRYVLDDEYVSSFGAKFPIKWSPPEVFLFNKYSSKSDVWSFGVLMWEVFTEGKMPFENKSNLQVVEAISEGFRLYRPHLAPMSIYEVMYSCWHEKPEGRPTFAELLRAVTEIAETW

Insulin receptor, sequence (P06213 28-758 limits assumed): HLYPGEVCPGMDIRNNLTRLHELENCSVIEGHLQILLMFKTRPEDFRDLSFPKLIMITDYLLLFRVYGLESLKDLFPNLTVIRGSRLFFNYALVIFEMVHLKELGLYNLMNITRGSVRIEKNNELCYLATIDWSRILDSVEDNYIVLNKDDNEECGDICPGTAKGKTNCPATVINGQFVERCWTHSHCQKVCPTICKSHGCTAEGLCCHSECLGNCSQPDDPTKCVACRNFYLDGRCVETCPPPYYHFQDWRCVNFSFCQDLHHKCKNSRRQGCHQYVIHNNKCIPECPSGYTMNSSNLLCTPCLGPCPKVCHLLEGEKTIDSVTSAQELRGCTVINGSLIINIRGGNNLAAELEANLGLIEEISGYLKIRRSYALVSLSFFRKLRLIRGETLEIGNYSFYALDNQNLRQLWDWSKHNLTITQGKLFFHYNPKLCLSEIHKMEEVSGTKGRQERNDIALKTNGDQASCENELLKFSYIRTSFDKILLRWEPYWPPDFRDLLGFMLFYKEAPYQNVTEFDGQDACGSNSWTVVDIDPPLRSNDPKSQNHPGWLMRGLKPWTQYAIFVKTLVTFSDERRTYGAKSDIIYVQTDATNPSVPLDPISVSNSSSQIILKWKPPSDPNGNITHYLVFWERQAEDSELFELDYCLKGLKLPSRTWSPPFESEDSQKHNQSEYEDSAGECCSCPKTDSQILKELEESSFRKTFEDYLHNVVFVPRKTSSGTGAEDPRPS
Insulin receptor, sequence (P06213 763-1382 limits assumed): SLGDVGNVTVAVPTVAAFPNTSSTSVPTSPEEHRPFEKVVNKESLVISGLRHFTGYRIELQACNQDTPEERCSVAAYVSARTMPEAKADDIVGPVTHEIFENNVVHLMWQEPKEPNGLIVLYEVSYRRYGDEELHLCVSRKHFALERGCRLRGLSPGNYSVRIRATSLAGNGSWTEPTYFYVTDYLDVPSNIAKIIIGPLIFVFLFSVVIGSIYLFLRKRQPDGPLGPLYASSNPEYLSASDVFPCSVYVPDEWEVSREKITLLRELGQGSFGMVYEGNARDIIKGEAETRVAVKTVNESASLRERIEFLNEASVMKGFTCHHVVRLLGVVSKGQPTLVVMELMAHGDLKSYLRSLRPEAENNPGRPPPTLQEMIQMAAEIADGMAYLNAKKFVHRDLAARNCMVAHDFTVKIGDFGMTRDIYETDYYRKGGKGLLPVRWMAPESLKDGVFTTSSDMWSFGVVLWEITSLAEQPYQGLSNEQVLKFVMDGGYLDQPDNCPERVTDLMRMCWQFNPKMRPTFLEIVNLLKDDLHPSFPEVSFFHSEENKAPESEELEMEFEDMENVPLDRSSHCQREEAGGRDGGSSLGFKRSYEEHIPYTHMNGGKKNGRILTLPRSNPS
Tyrosine-protein kinase BTK, sequence (Q06187 whole entry): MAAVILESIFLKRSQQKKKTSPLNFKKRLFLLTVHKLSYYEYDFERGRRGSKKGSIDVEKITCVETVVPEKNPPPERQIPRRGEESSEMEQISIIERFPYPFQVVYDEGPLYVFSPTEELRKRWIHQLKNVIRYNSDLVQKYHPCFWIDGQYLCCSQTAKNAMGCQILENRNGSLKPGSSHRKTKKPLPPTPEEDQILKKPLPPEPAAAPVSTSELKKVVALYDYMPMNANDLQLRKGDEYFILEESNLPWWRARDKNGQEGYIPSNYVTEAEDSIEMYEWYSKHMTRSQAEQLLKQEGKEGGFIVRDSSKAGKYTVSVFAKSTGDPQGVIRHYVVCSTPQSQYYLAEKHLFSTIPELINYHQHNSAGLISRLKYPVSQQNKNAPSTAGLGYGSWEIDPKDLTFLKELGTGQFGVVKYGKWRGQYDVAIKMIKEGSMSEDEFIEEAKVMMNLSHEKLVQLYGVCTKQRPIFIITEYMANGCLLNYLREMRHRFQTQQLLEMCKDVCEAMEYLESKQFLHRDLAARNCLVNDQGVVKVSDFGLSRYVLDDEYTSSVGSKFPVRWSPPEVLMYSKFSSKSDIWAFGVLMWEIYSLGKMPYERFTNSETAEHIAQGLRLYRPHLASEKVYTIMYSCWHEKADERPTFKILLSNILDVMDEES

| Compound | IC50 (Insulin receptor) [µM] | further results |
| --- | --- | --- |
| CN(C(=O)c1ccccc1)c1ccc2c(c1)[nH]/c(=N\C(=O)c1ccc(/C=C/c3ccc(O)cc3)s1)n2CCC(N)=O | 2.2 | – |
| CN(C(=O)c1ccccc1)c1ccc2c(c1)nc(NC(=O)c1ccc(/C=C/c3cccc(C(F)(F)F)c3)s1)n2CCC(N)=O | > 5 | – |
| COc1ccc(/C=C/c2ccc(C(=O)/N=c3\[nH]c4cc(N(C)C(=O)c5ccccc5)ccc4n3CCC(N)=O)s2)cc1 | > 5 | – |
| CN(C(=O)c1ccccc1)c1ccc2c(c1)[nH]/c(=N\C(=O)c1ccc(/C=C/c3ccccc3C(F)(F)F)s1)n2CCC(N)=O | > 5 | – |
| COc1cccc(/C=C/c2ccc(C(=O)Nc3nc4cc(N(C)C(=O)c5ccccc5)ccc4n3CCC(N)=O)s2)c1 | > 5 | – |
| CN(C(=O)c1ccccc1)c1ccc2c(c1)nc(NC(=O)c1cccs1)n2CCC(N)=O | – | IC50 (T-cell): > 5 µM |
| CN(C(=O)c1ccccc1)c1ccc2c(c1)[nH]/c(=N\C(=O)c1ccc(/C=C/c3cccnc3)s1)n2CCC(N)=O | > 5 | – |
| CN(C(=O)c1ccccc1)c1ccc2c(c1)[nH]/c(=N\C(=O)c1ccc(/C=C/c3cn[nH]c3)s1)n2CCC(N)=O | – | IC50 (T-cell): 3 µM |
| C=C(C)c1ccc(C(=O)/N=c2\[nH]c3cc(N(C)C(=O)c4ccccc4)ccc3n2CCC(N)=O)s1 | > 5 | – |
| COC(=O)/C=C(\C)c1ccc(C(=O)/N=c2\[nH]c3cc(N(C)C(=O)c4ccccc4)ccc3n2CCC(N)=O)s1 | 3.6 | – |
| CN(C(=O)c1ccccc1)c1ccc2c(c1)[nH]/c(=N\C(=O)c1ccc(/C=C/n3ccnc3)s1)n2CCC(N)=O | > 5 | IC50 [1]: 0.012 µM; IC50 [2]: 2.2 µM |
| C=Cc1ccc(C(=O)Nc2nc3cc(N(C)C(=O)c4ccccc4)ccc3n2CCC(N)=O)s1 | 0.48 | – |
| COC(=O)/C=C/c1ccc(C(=O)/N=c2\[nH]c3cc(N(C)C(=O)c4ccccc4)ccc3n2CCC(N)=O)s1 | > 5 | – |
| CN(C(=O)c1ccccc1)c1ccc2c(c1)[nH]/c(=N\C(=O)c1ccc(/C=C/c3ccncc3)s1)n2CCC(N)=O | > 5 | – |
| CN(C(=O)c1ccccc1)c1ccc2c(c1)[nH]/c(=N\C(=O)c1ccc(/C=C/c3cnccn3)s1)n2CCC(N)=O | > 5 | IC50 [1]: 0.008 µM; IC50 [2]: 0.81 µM |
| CN(C(=O)c1ccccc1)c1ccc2c(c1)[nH]/c(=N\C(=O)c1ccc(/C=C/c3cccc(N)c3)s1)n2CCC(N)=O | 4.9 | – |
| CN(C(=O)c1ccccc1)c1ccc2c(c1)nc(NC(=O)c1ccc(/C=C/c3ccc(N)cc3)s1)n2CCC(N)=O | 3.3 | – |
| CN(C(=O)c1ccccc1)c1ccc2c(c1)[nH]/c(=N\C(=O)c1ccc(/C=C/c3ncc(N)cn3)s1)n2CCC(N)=O | 1.5 | IC50 [1]: 0.005 µM; IC50 [3]: 0.005 µM; IC50 [2]: 0.41 µM; IC50 (T-cell): 1.6 µM; IC50 [4]: 0.7 µM |
| CN(C(=O)c1ccccc1)c1ccc2c(c1)[nH]/c(=N\C(=O)c1ccc(/C=C/c3cccc([N+](=O)[O-])c3)s1)n2CCC(N)=O | 4.3 | – |
| COc1ccccc1/C=C/c1ccc(C(=O)/N=c2\[nH]c3cc(N(C)C(=O)c4ccccc4)ccc3n2CCC(N)=O)s1 | > 5 | – |
| CN(C(=O)c1ccccc1)c1ccc2c(c1)[nH]/c(=N\C(=O)c1ccc(/C=C/c3cccc(N)n3)s1)n2CCC(N)=O | 3.8 | IC50 [1]: 0.007 µM; IC50 [2]: 2 µM |
| C/C(=C\c1ccncc1)c1ccc(C(=O)/N=c2\[nH]c3cc(N(C)C(=O)c4ccccc4)ccc3n2CCC(N)=O)s1 | > 5 | – |
| C/C(=C\c1cccnc1)c1ccc(C(=O)/N=c2\[nH]c3cc(N(C)C(=O)c4ccccc4)ccc3n2CCC(N)=O)s1 | > 5 | – |
| CN(C(=O)c1ccccc1)c1ccc2c(c1)[nH]/c(=N\C(=O)c1ccc(/C=C/c3ccccc3N)s1)n2CCC(N)=O | 1.95 | – |
| C/C(=C\c1ccccc1)c1ccc(C(=O)Nc2nc3cc(N(C)C(=O)c4ccccc4)ccc3n2CCC(N)=O)s1 | > 5 | – |
| CN(C(=O)c1ccccc1)c1ccc2c(c1)[nH]/c(=N\C(=O)c1ccc(/C=C/c3ccc(C(F)(F)F)cc3)s1)n2CCC(N)=O | > 5 | – |
| CN(C(=O)c1ccccc1)c1ccc2c(c1)[nH]/c(=N\C(=O)c1ccc(/C=C/c3ccccc3)s1)n2CCC(N)=O | 0.97 | – |
| C/C(=C\C#N)c1ccc(C(=O)/N=c2\[nH]c3cc(N(C)C(=O)c4ccccc4)ccc3n2CCC(N)=O)s1 | 4.5 | – |
